Measurements as given in US11932850B2, “Cancer chemoprevention with STAT3 blockers” (Jill M. Siegfried, LLC, priority 2018, dated 2024).
Entries after “also recorded” stand apart in the source; their conditions may differ. Like-named read-outs stand apart in the source and are kept apart here.

How the values were obtained:
[1] = tested on: K-RAS G12D mutation in tumors; conditions: tumors 20 weeks post treatment, P>0.1
[2] = tested on: 201T cells; experiment: MTS cell viability assay, 201T; assay type: cell-based, human
Method: (§1) NSCLC cell lines (201T and H1975) were transfected with CS3D or CS3M (cyclic STAT3 mutant decoy) at concentrations ranging from 0 nM to 600 nM. Using MTS assays, cell viabilities were assessed 72 hours later. Three independent experiments were performed, using 24-well plates and 4 wells/concentration.
(§2) To determine the concentration of CS3D required to inhibit cell viability, increasing concentrations of CS3D was transfected, and after 72 hours, MTS assays were used to assess cell viability. Data were normalized to cells treated with lipofectamine alone.
Fluorescently-labeled CS3M and CS3D (with iFluor) were also produced using enzymatic ligation as described above and used to assess uptake efficiency. Transfections of the cyclic oligonucleotides were performed using Lipofectamine 2000 (Life Technologies) in opti-MEM media (Life Technologies) as follows: Cells were plated at […] confluency, and exposed to transfection media containing the respective circularized oligonucleotides for 24 hours at 37° C. Post-transfection, cell recovery was initiated in media containing 10% heat-inactivated fetal bovine serum.
(§3) Dose-response experiments assessing the relative number of metabolically active viable cells were performed by transfecting cells with increasing concentrations of CS3D or CS3M, followed by performance of MTS assays. After 72 hours, 5 mg/ml of MTS reagent was added in the plates and incubated 37° C. for 20 minutes. The plates were then read at 490 nm in a Synergy microplate reader (BioTek, Winooski, Vermont) using Gen5 2.05 software. Data obtained following treatment with C3SD or CS3M were normalized to treatment with lipofectamine alone. […] To assess induction of apoptosis in response to CS3D, H1975 and 201T cells were transfected with 100 nM of CS3M or CS3D. After twenty four hours of transfection, cells were resuspended in annexin V-binding buffer, incubated with 5 μL of propidium iodide (BD Biosciences) and subjected to flow cytometric analysis, using a BD FACS Canto II Flow Cytometer.

[3] = biological target: pSTAT3 and total STAT3 in H1975 cells (Homo sapiens, UniProt P40763)
Chain of pSTAT3 and total STAT3 in H1975 cells (P40763 2-770 limits assumed): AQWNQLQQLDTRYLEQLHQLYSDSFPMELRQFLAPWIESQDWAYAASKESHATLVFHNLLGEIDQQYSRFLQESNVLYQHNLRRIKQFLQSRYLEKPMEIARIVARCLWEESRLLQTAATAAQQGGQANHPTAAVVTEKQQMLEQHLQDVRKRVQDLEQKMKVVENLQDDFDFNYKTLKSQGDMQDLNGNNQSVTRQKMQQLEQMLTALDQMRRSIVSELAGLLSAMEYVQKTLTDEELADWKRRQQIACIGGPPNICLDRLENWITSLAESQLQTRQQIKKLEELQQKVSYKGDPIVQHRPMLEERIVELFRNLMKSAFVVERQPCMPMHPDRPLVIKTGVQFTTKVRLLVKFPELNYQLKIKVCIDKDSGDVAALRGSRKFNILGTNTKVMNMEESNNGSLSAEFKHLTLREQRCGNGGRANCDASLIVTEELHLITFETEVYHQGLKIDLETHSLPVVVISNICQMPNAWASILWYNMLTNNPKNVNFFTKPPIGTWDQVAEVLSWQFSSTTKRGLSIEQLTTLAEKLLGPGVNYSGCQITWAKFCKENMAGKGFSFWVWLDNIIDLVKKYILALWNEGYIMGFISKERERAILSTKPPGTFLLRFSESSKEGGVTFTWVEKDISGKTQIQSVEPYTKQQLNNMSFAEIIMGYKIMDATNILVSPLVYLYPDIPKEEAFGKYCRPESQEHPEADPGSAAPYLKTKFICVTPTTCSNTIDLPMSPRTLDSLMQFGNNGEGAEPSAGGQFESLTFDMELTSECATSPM

[4] = tested on: NSCLC cell lines; conditions: each NSCLC cell line, regardless of EGFR or KRAS mutation status; one 4-hr transfection
Method: as §1, §2
as §3, with “After twenty four hours of transfection, cells were resuspended in annexin V-binding buffer, incubated with 5 μL of propidium iodide (BD Biosciences) and subjected to flow cytometric analysis, using a BD FACS Canto II Flow Cytometer.” left out

[5] = tested on: M1 macrophages, M2 macrophages, MDSCs; experiment: Flow cytometry of immune cells isolated from lungs of NNK mice; assay type: in vivo
Source text: STAT3 also plays a central role in immune evasion. STAT3 specifically orchestrates immunosuppression by promoting M2 macrophage and myeloid-derived suppressor cells (MDSCs) activity while suppressing M1 macrophage function [Su et al. Int. J. Mol. Science 19: pll:E1803, 2018]. Thus STAT3 inhibition by CS3D should favor an antitumor immune response by enhancing M1 macrophage activity.
Lungs from mice were digested with RPMI media containing collagenase and DNase to obtained single cell suspension. The cells were counted and 1×10^6 cells were staining with fluorescent labeled CD45, CD11b, MHC II, Ly6C and F4/80. The labeled cells were gated and data acquired on LSR fortessa (BD Biosciences) and further analysed by Flowjo.

[6] = Toxicology studies in mice; assay type: in vivo; conditions: repeated doses up to 100 mg/kg
Source text: The novel mechanism of action combined with the stability of the circularized STAT3 decoy and its low toxicity are favorable features for clinical application. In all experiments with the STAT3 decoy, activity is compared to a mutant version with a T-A base pair replacing a G-C base pair at position 9, differing by the two nucleotides in the base pair.

[7] = tested on: Ki-67, p-STAT3, NF-κB in H1975 xenografts; experiment: IHC of H1975 xenografts after 5 daily iv injections; assay type: in vivo, nude mice
Method: Because tumors treated for several weeks with the STAT3 decoy were largely composed of debris (as illustrated in FIG. 11), xenografts were examined after only 5 daily tail vein injections to determine what cellular changes were induced prior to collapse of the intracellular tumor structure. […] Tumors derived from H1975 xenografs were analyzed by immunohistochemical staining for p-STAT3 after 5 daily iv injections of either STAT3 decoy or mutant decoy. […] This effect is quantified in FIG. 9B.
Images were captured at 40× magnification. A shift from 41% of cells was observed and scored as high-grade staining with CS3M treatment to 13% with high-grade staining in the presence of CS3D, with corresponding increases in moderate- and low-grade staining in the STAT3 decoy treated group (FIG. 12B). […] Bright field images were captured at 40× magnification. Frequency of high-grade staining for p-STAT3 differed between CS3D and CS3M treatment groups (23% in CS3D-treated and 51% in CS3M treated, with corresponding increase in low-grade staining in presence of the active decoy (FIG. 9B). Significant degradation of p-STAT3 protein was detected by IHC in tumors was observed after treatment with CS3D. Percent of high staining fields was reduced from 48% to 22% while percent of fields with low staining increased, P<0.001 (FIG. 9B).
Immunohistochemical analysis: Tumors were excised for immunohistochemical (IHC) staining; 5-μm (micron) sections were cut from formalin-fixed paraffin-embedded tissue blocks, deparaffinized and rehydrated using successive washes of xylene followed by ethanol. Antigen retrieval was performed in a microwave oven (for 20 minutes) in an unmasking solution containing sodium citrate buffer followed by peroxidase blocking in 3% hydrogen peroxide. The sections were incubated in ABC blocking buffer (Vector laboratories Inc, Burlingame, California) for 1 hour at room temperature. Sections were then stained with H&E (hematoxylin and eosin) or subjected to sequential incubations with different primary antibodies and peroxidase-conjugated goat anti-rabbit secondary antibodies. The following primary antibodies were used (at the indicated dilutions): cleaved caspase-3 (#9664, Cell Signaling, 1:300), p-STAT3 (#9145, Cell Signaling, 1:400), Ki67 (#ab15580, Abcam, 1:1000). Sections were developed with DAB and counterstained with hematoxylin. Bright field microscopy was performed using Leica DM 4000 B LED microscope and images were captured at 20× and 40× magnification using LASv4.7 software. IHC analysis was done as a blinded study with 100 images from each treatment group graded as low, moderate, or high. Staining was graded as low (<30% positive cells per field, scored as 1), moderate (30-60% positive cells per field, scored as 2) or high (>60% positive cells per field, scored as 3).

[8] = H1975, IL-6 50 ng/mL 1 hr, compared to CS3M or lipofectamine alone
[9] = NNK 4 weeks then 1 week of drug administration

With “CS3D (DNA GATTTACGGGAAATGCSCATTTCCC; cyclic decoy with two hexaethylene glycol linkers, further chemistry not given here)” as the substance, how does the “proportion of tumors positive for K-RAS mutation, CS3D vs CS3M” value [1] read?
Its value is “no significant difference”.

And the inhibition in proliferation ([2]; 0.3 μM transfection, 201T, relative to CS3M)?
The inhibition in proliferation was 50%.

What about the IC50 ([2]; 201T (WT EGFR), MTS 72 hours, read-out: IC50) of the same substance?
Its IC50 is about 300 nM.

What about the IC50 ([2]; 201T, EGFR WT, KRAS WT, MTS at 72 hours after transfection, read-out: CS3D IC50) of the same substance?
Its IC50 is 300 nM.

And the “reduction in nuclear pSTAT3” value [3, 8]?
The value was 35%.

What about the “reduction in nuclear total STAT3” value [3, 8] of the same substance?
Its value is 35%.

And the “effect on cytoplasmic pool of total STAT3” value ([3]; H1975, IL-6 stimulated)?
Its value is “little effect”.

What about the IC50 [4] of the same substance?
The IC50 was about 300 nM.

And the M2 macrophages [5, 9]?
The M2 macrophages was 5.53%.

What about the MDSCs [5, 9] of the same substance?
Its MDSCs is 14.2%.

What about the “proportion of M1 macrophages in the lung TME” value ([5]; NNK 4 weeks then 1 week of drug, vs CS3M) of the same substance?
Its value is “increasing”.

What about the “toxicology: body weight, organ histology, clinical chemistry” value [6] of the same substance?
The value was “no significant effects on body weight, organ histology, or clinical chemistry; also recorded: no appreciable changes in blood chemistry, weight or organ structure”.

And the Ki-67 high-grade staining ([7]; H1975 xenografts, 5 daily injections)?
Its Ki-67 high-grade staining is 13%.

And the “frequency of high-grade staining for p-STAT3” value ([7]; H1975 xenografts, 5 daily iv injections)?
The value was 23%.

What about the “percent of high staining fields for p-STAT3” value ([7]; H1975 xenografts, second statement in b134 (FIG. 9B)) of the same substance?
Its value is 22%.

What about the “induction of apoptosis at early time point” value ([7]; after 5 daily injections (not shown)) of the same substance?
The value was “no induction of apoptosis”.

And the NF-κB nuclear protein ([7]; after five days of treatment)?
The NF-κB nuclear protein was “No change”.
